For twelve molecules, MIC results are on record in ChEMBL document CHEMBL5346923, “Novel pyridinium cationic pleuromutilin analogues overcoming bacterial multidrug resistance” (Eur J Med Chem, 2023).

In brackets after ≈: the same amount, converted by molar mass. Bounds are passed on as bounds.

By MIC is commonly meant the smallest concentration in the dilution series that meets the test's criterion for growth inhibition.

Holding throughout (assay type): functional
For experiment [1], the system named is Staphylococcus aureus. The experiment can be described thus: Antibacterial activity against Staphylococcus aureus ATCC 29213 assessed as inhibition of bacterial growth measured after 24 hrs by MH broth based assay.
Experiment [2] concerns Proteus. The experiment can be described thus: Antibacterial activity against Proteus CMCC (B) 49027 assessed as inhibition of bacterial growth measured after 24 hrs by MH broth based assay.
Experiment [3] concerns Streptococcus pneumoniae. The experiment can be described thus: Antibacterial activity against Streptococcus pneumoniae ATCC 49619 assessed as inhibition of bacterial growth measured after 24 hrs by MH broth based assay.
For experiment [4], the system named is Bacillus subtilis. The experiment can be described thus: Antibacterial activity against Bacillus subtilis ATCC 6633 assessed as inhibition of bacterial growth measured after 24 hrs by MH broth based assay.
Experiment [5] relates to Staphylococcus aureus. Nature of the experiment: Antibacterial activity against methicillin-resistant Staphylococcus aureus ATCC 43300 assessed as inhibition of bacterial growth measured after 24 hrs by MH broth based assay.
The test system of experiment [6] is Escherichia coli. The experiment can be described thus: Antibacterial activity against Escherichia coli MG1655 assessed as inhibition of bacterial growth measured after 24 hrs by MH broth based assay.
In experiment [7] the test system is Enterococcus. The experiment can be described thus: Antibacterial activity against vancomycin-resistant Enterococcus ATCC 700221 assessed as inhibition of bacterial growth measured after 24 hrs by MH broth based assay.
The test system of experiment [8] is Escherichia coli. The experiment can be described thus: Antibacterial activity against Escherichia coli ATCC 25922 assessed as inhibition of bacterial growth measured after 24 hrs by MH broth based assay.
Experiment [9] concerns Staphylococcus epidermidis. Nature of the experiment: Antibacterial activity against methicillin-resistant Staphylococcus epidermidis ATCC 51625 assessed as inhibition of bacterial growth measured after 24 hrs by MH broth based assay.
In experiment [10] the test system is Escherichia coli. The experiment can be described thus: Antibacterial activity against Escherichia coli MG1655 harbouring acrB gene assessed as inhibition of bacterial growth measured after 24 hrs by MH broth based assay.
The subject of experiment [11] is Klebsiella pneumoniae. Nature of the experiment: Antibacterial activity against Klebsiella pneumonia CMCC (B) 46117 assessed as inhibition of bacterial growth measured after 24 hrs by MH broth based assay.

On to `C=C[C@]1(C)C[C@@H](OC(=O)CSc2cc[n+](CCCCCCCCCC)cc2)[C@]2(C)[C@H](C)CC[C@]3(CCC(=O)[C@H]32)[C@@H](C)[C@@H]1O.[I-]`, for which the minimum inhibitory concentration (MIC) in experiment [1] was 0.25 µg/mL; in experiment [2], 64 µg/mL; in experiment [3], 0.125 µg/mL; in experiment [4] it was 2 µg/mL; in experiment [5], 1 µg/mL; in experiment [6], 16 µg/mL. In addition, the MIC came out at 4 µg/mL in [7]; 16 µg/mL in experiment [8]; 0.5 µg/mL in [9]; 1 µg/mL in experiment [10]; 2 µg/mL in [11].
Regarding `C=C[C@]1(C)C[C@@H](OC(=O)CSc2cc[n+](CCC)cc2)[C@]2(C)[C@H](C)CC[C@]3(CCC(=O)[C@H]32)[C@@H](C)[C@@H]1O.[I-]`, the MIC in experiment [1] stood at 0.25 µg/mL; in experiment [2], 64 µg/mL; in experiment [3] it was 0.063 µg/mL; in [4], 64 µg/mL; in experiment [5], 0.25 µg/mL; in experiment [6], 64 µg/mL. The minimal inhibitory concentration (MIC) in experiment [7] amounted to 16 µg/mL; in [8] it was 64 µg/mL; in experiment [9] it was 0.125 µg/mL; in experiment [10], 0.5 µg/mL; in experiment [11], 32 µg/mL.
On to `C#CC[n+]1ccc(SCC(=O)O[C@@H]2C[C@@](C)(C=C)[C@@H](O)[C@H](C)[C@]34CCC(=O)[C@H]3[C@@]2(C)[C@H](C)CC4)cc1.[I-]`, for which the MIC in experiment [1] is 0.125 µg/mL; in experiment [2], more than 64 µg/mL; in experiment [3] it was less than 0.031 µg/mL; in [4], 32 µg/mL; in [5], 0.125 µg/mL; in [6], 64 µg/mL. For the same molecule, the minimum inhibitory concentration (MIC) in experiment [7] was determined as 16 µg/mL; in [8] it was 64 µg/mL; in experiment [9] it was 0.031 µg/mL; in experiment [10], 0.5 µg/mL; in [11], 8 µg/mL.
On to `C=C[C@]1(C)C[C@@H](OC(=O)CSc2cc[n+](CC(=O)NC3CCCC3)cc2)[C@]2(C)[C@H](C)CC[C@]3(CCC(=O)[C@H]32)[C@@H](C)[C@@H]1O.[I-]`, for which the MIC is 4 µg/mL in [1]; more than 64 µg/mL in experiment [2]; 1 µg/mL in experiment [3]; more than 64 µg/mL in experiment [4]; 4 µg/mL in experiment [5]; 64 µg/mL in [6]. Also, the minimum inhibitory concentration (MIC) turned out to be 64 µg/mL in [7]; 64 µg/mL in [8]; 1 µg/mL in [9]; 8 µg/mL in experiment [10]; 64 µg/mL in experiment [11].
In the case of `C=C[C@]1(C)C[C@@H](OC(=O)CSc2cc[n+](C(C)C)cc2)[C@]2(C)[C@H](C)CC[C@]3(CCC(=O)[C@H]32)[C@@H](C)[C@@H]1O.[I-]`, the minimal inhibitory concentration (MIC) came out at 0.5 µg/mL in experiment [1]; 64 µg/mL in experiment [2]; 1 µg/mL in [3]; 64 µg/mL in [4]; 1 µg/mL in experiment [5]; 64 µg/mL in experiment [6]. The minimal inhibitory concentration (MIC) in [7] amounted to 64 µg/mL; in [8], 64 µg/mL; in experiment [9], 2 µg/mL; in [10], 2 µg/mL; in [11] it was 64 µg/mL.
As for `C=C[C@]1(C)C[C@@H](OC(=O)CSc2cc[n+](CCCCCCCCCC(=O)O)cc2)[C@]2(C)[C@H](C)CC[C@]3(CCC(=O)[C@H]32)[C@@H](C)[C@@H]1O.[I-]`, the minimum inhibitory concentration (MIC) in [1] is 4 µg/mL; in experiment [2] it was more than 64 µg/mL; in experiment [3], 1 µg/mL; in experiment [4], more than 64 µg/mL; in [5], 4 µg/mL; in experiment [6] it was more than 64 µg/mL. Besides, the minimum inhibitory concentration (MIC) in experiment [7] was 64 µg/mL; in [8], more than 64 µg/mL; in experiment [9], 2 µg/mL; in experiment [10], 32 µg/mL; in experiment [11], more than 64 µg/mL.
`C=C[C@]1(C)C[C@@H](OC(=O)CSc2cc[n+](CC(=O)N3CCC(CO)CC3)cc2)[C@]2(C)[C@H](C)CC[C@]3(CCC(=O)[C@H]32)[C@@H](C)[C@@H]1O.[I-]`: the MIC in experiment [1] was 2 µg/mL; in [2], more than 64 µg/mL; in [3] it was 2 µg/mL; in experiment [4], 64 µg/mL; in experiment [5], 2 µg/mL; in [6] it was 64 µg/mL. In addition, the MIC was determined as 64 µg/mL in experiment [7]; 64 µg/mL in experiment [8]; 4 µg/mL in experiment [9]; 16 µg/mL in [10]; 64 µg/mL in experiment [11].
On to `C=C[C@]1(C)C[C@@H](OC(=O)CSc2cc[n+](Cc3cccc(NC(=O)OC(C)(C)C)c3)cc2)[C@]2(C)[C@H](C)CC[C@]3(CCC(=O)[C@H]32)[C@@H](C)[C@@H]1O.[I-]`, for which the minimal inhibitory concentration (MIC) in [1] is 0.5 µg/mL; in [2], more than 64 µg/mL; in experiment [3] it was less than 0.031 µg/mL; in experiment [4], 64 µg/mL; in experiment [5], 0.5 µg/mL; in experiment [6], 64 µg/mL. Further, the minimal inhibitory concentration (MIC) worked out at 16 µg/mL in experiment [7]; 64 µg/mL in experiment [8]; 0.125 µg/mL in experiment [9]; 4 µg/mL in experiment [10]; 64 µg/mL in experiment [11].
In the case of `C=C[C@]1(C)C[C@@H](OC(=O)CSc2cc[n+](CC(=O)N3CCOCC3)cc2)[C@]2(C)[C@H](C)CC[C@]3(CCC(=O)[C@H]32)[C@@H](C)[C@@H]1O.[I-]`, the minimum inhibitory concentration (MIC) in experiment [1] was 16 µg/mL; in experiment [2] it was more than 64 µg/mL; in experiment [3], 4 µg/mL; in [4], more than 64 µg/mL; in [5], 16 µg/mL; in [6], 64 µg/mL. For the same molecule, the minimum inhibitory concentration (MIC) in [7] is 64 µg/mL; in experiment [8], more than 64 µg/mL; in [9], 8 µg/mL; in experiment [10] it was 8 µg/mL; in experiment [11] it was more than 64 µg/mL.
As for `C=C[C@]1(C)C[C@@H](OC(=O)CSc2cc[n+](Cc3ccc(C)cc3)cc2)[C@]2(C)[C@H](C)CC[C@]3(CCC(=O)[C@H]32)[C@@H](C)[C@@H]1O.[I-]`, the MIC in [1] is 0.5 µg/mL; in experiment [2], more than 64 µg/mL; in experiment [3] it was less than 0.031 µg/mL; in experiment [4] it was more than 64 µg/mL; in experiment [5] it was 0.5 µg/mL; in experiment [6] it was 64 µg/mL. Moreover, the MIC in experiment [7] came out at 64 µg/mL; in [8] it was 64 µg/mL; in experiment [9], 0.063 µg/mL; in experiment [10] it was 2 µg/mL; in experiment [11], 32 µg/mL.
Consider `C=C[C@]1(C)C[C@@H](OC(=O)CSc2cc[n+](Cc3ccc(OC)cc3)cc2)[C@]2(C)[C@H](C)CC[C@]3(CCC(=O)[C@H]32)[C@@H](C)[C@@H]1O.[I-]`, for which the MIC was 0.063 µg/mL in experiment [1]; more than 64 µg/mL in experiment [2]; less than 0.031 µg/mL in experiment [3]; 16 µg/mL in experiment [4]; 0.125 µg/mL in [5]; 64 µg/mL in experiment [6]. Moreover, the MIC in [7] turned out to be 4 µg/mL; in experiment [8] it was 64 µg/mL; in [9], 0.031 µg/mL; in experiment [10] it was 0.5 µg/mL; in experiment [11] it was 4 µg/mL.
On to `CN[C@H](CC(C)C)C(=O)N[C@H]1C(=O)N[C@@H](CC(N)=O)C(=O)N[C@H]2C(=O)N[C@H]3C(=O)N[C@H](C(=O)N[C@H](C(=O)O)c4cc(O)cc(O)c4-c4cc3ccc4O)[C@H](O)c3ccc(c(Cl)c3)Oc3cc2cc(c3O[C@@H]2O[C@H](CO)[C@@H](O)[C@H](O)[C@H]2O[C@H]2C[C@](C)(N)[C@H](O)[C@H](C)O2)Oc2ccc(cc2Cl)[C@H]1O` [VANCOMYCIN], for which the minimum inhibitory concentration (MIC) was more than 64 µg/mL in [2]; 0.25 µg/mL (≈ 0.173 µM) in experiment [3]; 0.125 µg/mL (≈ 0.0863 µM) in experiment [4]; more than 64 µg/mL in [6]; 64 µg/mL (≈ 44.2 µM) in [7]; more than 64 µg/mL in [8]. In addition, the minimal inhibitory concentration (MIC) in experiment [9] was 0.5 µg/mL (≈ 0.345 µM); in experiment [10] it was more than 64 µg/mL; in experiment [11], more than 64 µg/mL.
